The source of these data is patent publication US20160108049A1 (TAKEDA Gmbh, priority 2011, published 2016).

The target of one assay is T1, PDE4B1 (Homo sapiens, UniProt Q07343).
T1 construct: made in house; host or cells: SF21 insect cells (baculovirus; virus made in SF9 cells, pCR-Bac vector)
Briefly: Inhibition of PDE4 activity (PDE4B1, SPA assay). It is filed as biochemical. To be noted: recombinant PDE4B1, 0.5 μM cAMP; read-out: PDE4B1 Inhibitory values measured as -logIC50 (converted). The protocol:
Method for Measuring Inhibition of PDE4 Activity
The PDE4B1 (GB no. L20966) was a gift of Prof. M. Conti (Stanford University, USA). It was amplified from the original plasmid (pCMV5) via PCR with primers Rb18 (5′-[…]-3′) and Rb10 (5′-[…]-3′) and cloned into the pCR-Bac vector (Invitrogen, Groningen, NL).
The recombinant baculovirus was prepared by means of homologous recombination in SF9 insect cells. The expression plasmids were cotransfected with Baculo-Gold DNA (Pharmingen, Hamburg) using a standard protocol (Pharmingen, Hamburg). Wt virus-free recombinant virus supernatants were selected using plaque assay methods. After that, high-titre virus supernatants were prepared by amplifying 3 times. PDE4B1 was expressed in SF21 cells by infecting 2×10^6 cells/ml with an MOI (multiplicity of infection) between 1 and 10 in the serum-free SF900 medium (GIBCO Life Technologies, Karlsruhe, Germany) The cells were cultured at 28° C. for 48-72 hours, after which they were pelleted for 5-10 min at 1000×g and 4° C.
The SF21 insect cells were resuspended, at a concentration of approx. 10^7 cells/ml, in ice-cold (4° C.) homogenization buffer (20 mM Tris, pH 8.2, containing the following additions: 140 mM NaCl, 3.8 mM KCl, 1 mM EGTA, 1 mM MgCl2, 10 mM β-mercaptoethanol, 2 mM benzamidine, 0.4 mM Pefablock, 10 μM leupeptin, 10 μM pepstatin A, 5 μM trypsin inhibitor) and disrupted by ultrasonication. The homogenate was then centrifuged for 10 min at 1000×g and the supernatant was stored at −80° C. until subsequent use (see below). The protein content was determined by the Bradford method (BioRad, Munich) using BSA (Bovine serum albumin) as the standard.
PDE4B1 activities were measured in a 96-well platform using SPA (scintillation proximity assay) yttrium silicate beads (RPNQ1050 from GE Healthcare). In a first step the PDE activity operated hydrolysis of either [^3H] cAMP (substrate) into […]. In a second step substrate and product were distinguished following addition of SPA yttrium silicate beads. […] Close proximity of bound [^3H] […] The test volume was 100 μl and finally contained 20 mM Tris buffer (pH 7.4), 0.1 mg/ml of BSA, 5 mM Mg^2+, 0.5 μM cAMP (including about 50,000 cpm of [3H]cAMP) as substrate, 1 μl of the respective substance dilution in DMSO and sufficient recombinant PDE (1000×g supernatant, see above) to ensure that 10-20% of the cAMP was converted under the said experimental conditions. […] After a preincubation of 5 min at 37° C., the reaction was commenced by adding the substrate (cAMP) and the assays were incubated for a further 15 min. Reactions were terminated by adding SPA beads (50 μl). In agreement with the manufacturer's instructions, the SPA beads had previously been resuspended in water, but were then diluted 1:3 (v/v) in water. This diluted solution further contained 3 mM IBMX (isobutylmethylxanthine) to ensure a complete block of PDE activity. Once the beads were sedimented (>30 min), the MTP's (micro titerplate) were analyzed in commercially available […]. The corresponding IC50 values of the compounds for inhibition of PDE4B1 activity were determined from the concentration-effect curves by means of non-linear regression.
(§1) The numbers of the compounds correspond to the numbers of the examples.

The target in a further assay is T2, human PDE5 (Homo sapiens, UniProt O76074).
T2 construct: from tissue; host or cells: human platelets from fresh donor blood (platelet lysate)
Put plainly: Inhibition of PDE5 activity (platelet lysate, SPA assay). The note with it: 0.5 μM cGMP, read-out: PDE5 Inhibitory values measured as -logIC50 (converted). It is filed as biochemical. The protocol:
Method for Measuring Inhibition of PDE5 Activity
As a source for human PDE5, platelets were used. For that purpose, 150 ml fresh blood from human donors anticoagulated with citrate [final concentration 0.3% (w/v)] was centrifuged at 200 g for 10 min to obtain the so-called platelet-rich-plasma (PRP) as a supernatant. […] After centrifugation (1,400 g, 10 min) the cell pellet was resuspended in 3 ml homogenization buffer (NaCl 140 mM, KCl 3.8 mM, EGTA (ethylene glycol tetraacetic acid) 1 mM, MgCl2 1 mM, Tris-HCl 20 mM, beta-mercaptoethanol 1 mM, pH 8.2) plus protease-inhibitor mix resulting in final concentrations of 0.5 mM Pefablock (Roche), 10 μM Leupeptin, 5 μM Trypsine inhibitor, 2 mM Benzamidin and 10 μM Pepstatin A. The suspension was sonicated and thereafter centrifuged for 15 min at 10,000 g. The resulting supernatant (platelet lysate) was used for enzymatic assays.
PDE5 activities were measured in a 96-well platform using SPA (scintillation proximity assay) yttrium silicate beads (RPNQ1050 from GE Healthcare). In a first step the PDE activity operated hydrolysis of either [^3H] cGMP (substrate) into [^3H] 5′GMP. In a second step substrate and product were distinguished following addition of SPA yttrium silicate beads. Indeed, in the presence of zinc sulphate the linear [^3H] […] Close proximity of bound [^3H] […] The test volume was 100 μl and contained 20 mM Tris buffer (pH 7.4), 0.1 mg of BSA (bovine serum albumin)/ml, 5 mM Mg^2+, 1 μM motapizone (PDE3 Inhibitor), 10 nM PDE2 inhibitor 2-(3,4-dimethoxybenzyl)-7-[(1R,2R)-2-hydroxy-1-(2-phenylethyl)propyl]-5-methylimidazo[5,1-f][1,2,4]triazin-4(3H)-one, 0.5 μM cGMP (cyclic guanosine monophosphate) (including about 50,000 cpm of [3H]cGMP as a tracer) (substrate), 1 μl of the respective compound dilution in dimethylsulfoxide (DMSO) and sufficient PDE5-containing platelet lysat (10,000×g supernatant, see above) to ensure that 10-20% of the cGMP was converted under the said experimental conditions. […] After a preincubation of 5 min at 37° C., the reaction was commenced by adding the substrate (cGMP) and the assay was incubated for a further 15 min. The reaction was terminated by adding SPA beads (50 μl). In agreement with the manufacturer's instructions, the SPA beads had previously been resuspended in water, but were then diluted 1:3 (v/v) in water. This diluted solution also contained 3 mM 8-methoxymethyl-3-isobutyl-1-methylxanthine (IBMX) to ensure a complete block of PDE activity. Once the beads were sedimented (>30 min), the MTP's were analyzed in commercially available luminescence detection devices. The corresponding IC50 values of the compounds for inhibition of PDE activity were determined from the concentration-effect curves by means of non-linear regression.
as §1

The structures appear in SMILES notation.

T1 sequence (Q07343 whole entry): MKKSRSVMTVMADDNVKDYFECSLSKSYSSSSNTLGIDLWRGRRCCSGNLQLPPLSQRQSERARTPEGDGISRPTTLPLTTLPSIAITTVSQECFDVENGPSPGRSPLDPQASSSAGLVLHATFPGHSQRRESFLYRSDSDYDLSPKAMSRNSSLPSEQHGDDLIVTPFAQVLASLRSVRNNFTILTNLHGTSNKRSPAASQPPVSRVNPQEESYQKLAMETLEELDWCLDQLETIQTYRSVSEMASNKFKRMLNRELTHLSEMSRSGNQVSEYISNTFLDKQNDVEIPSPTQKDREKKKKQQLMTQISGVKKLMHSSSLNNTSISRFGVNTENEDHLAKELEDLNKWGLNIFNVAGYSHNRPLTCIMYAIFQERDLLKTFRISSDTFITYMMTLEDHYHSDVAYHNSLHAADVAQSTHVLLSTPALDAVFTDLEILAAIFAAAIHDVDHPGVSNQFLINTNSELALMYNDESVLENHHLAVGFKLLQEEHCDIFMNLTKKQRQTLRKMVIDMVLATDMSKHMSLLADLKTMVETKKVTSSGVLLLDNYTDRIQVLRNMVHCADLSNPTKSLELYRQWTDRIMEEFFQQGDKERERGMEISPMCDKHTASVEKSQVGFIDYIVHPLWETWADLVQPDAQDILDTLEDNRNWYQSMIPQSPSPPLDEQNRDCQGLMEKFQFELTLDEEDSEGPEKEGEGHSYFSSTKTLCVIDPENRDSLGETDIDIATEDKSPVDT

Consider `CCOc1ccc(C[C@@H](NC(=O)c2c(C)[nH]c3c(-c4cc(F)c(OC)cc4OCC4CC4)ncnc23)C(=O)N2CCC(N3N=C(c4ccc(OC)c(OC)c4)[C@H]4CCCC[C@H]4C3=O)CC2)cc1` [Example 8, 4-[2-(cyclopropylmethoxy)-5-fluoro-4-methoxyphenyl]-N-[(2R)-1-{4-[(4aS,8aR)-4-(3,4-dimethoxyphenyl)-1-oxo-4a,5,6,7,8,8a-hexahydrophthalazin-2(1H)-yl]piperidin-1-yl}-3-(4-ethoxyphenyl)-1-oxopropan-2-yl]-6-methyl-5H-pyrrolo[3,2-d]pyrimidine-7-carboxamide], for which the IC50 is 1 to 10 nM on PDE4B1 and under 1 nM on human PDE5.

With `CCOc1ccc(C[C@@H](NC(=O)c2c[nH]c3c(-c4c(OCC5CC5)ccc5c4OCO5)ncnc23)C(=O)N2CCC(N3N=C(c4ccc(OC)c(OC)c4)[C@H]4CCCC[C@H]4C3=O)CC2)cc1` [Example 9, 4-[5-(cyclopropylmethoxy)-1,3-benzodioxol-4-yl]-N-[(2R)-1-{4-[(4aS,8aR)-4-(3,4-dimethoxyphenyl)-1-oxo-4a,5,6,7,8,8a-hexahydrophthalazin-2(1H)-yl]piperidin-1-yl}-3-(4-ethoxyphenyl)-1-oxopropan-2-yl]-5H-pyrrolo[3,2-d]pyrimidine-7-carboxamide], the IC50 at PDE4B1 and at human PDE5 was under 1 nM in each case.

`CCOc1ccc(C[C@@H](NC(=O)c2c(C)[nH]c3c(-c4c(OCC5CC5)ccc5c4OCO5)ncnc23)C(=O)N2CCC(N3N=C(c4ccc(OC)c(OC)c4)[C@H]4CCCC[C@H]4C3=O)CC2)cc1` [Example 10, 4-[5-(cyclopropylmethoxy)-1,3-benzodioxol-4-yl]-N-[(2R)-1-{4-[(4aS,8aR)-4-(3,4-dimethoxyphenyl)-1-oxo-4a,5,6,7,8,8a-hexahydrophthalazin-2(1H)-yl]piperidin-1-yl}-3-(4-ethoxyphenyl)-1-oxopropan-2-yl]-6-methyl-5H-pyrrolo[3,2-d]pyrimidine-7-carboxamide]: the IC50 at PDE4B1 and on human PDE5 was under 1 nM each time.

As for `COc1ccc(C2=NN(C3CCN(C(=O)[C@@H](Cc4ccc(C(N)=O)cc4)NC(=O)c4c(C)[nH]c5c(-c6c(OCC7CC7)ccc7c6OCO7)ncnc45)CC3)C(=O)[C@@H]3CCCC[C@H]23)cc1OC` [Example 11, N-[(2R)-3-(4-carbamoylphenyl)-1-{4-[(4aS,8aR)-4-(3,4-dimethoxyphenyl)-1-oxo-4a,5,6,7,8,8a-hexahydrophthalazin-2(1H)-yl]piperidin-1-yl}-1-oxopropan-2-yl]-4-[5-(cyclopropylmethoxy)-1,3-benzodioxol-4-yl]-6-methyl-5H-pyrrolo[3,2-d]pyrimidine-7-carboxamide], the IC50 on PDE4B1 is under 1 nM; at human PDE5, 1 to 10 nM.

`COc1ccc(C2=NN(C3CCN(C(=O)[C@@H](Cc4ccc(-c5ccccc5)cc4)NC(=O)c4c(C)[nH]c5c(-c6c(OCC7CC7)ccc7c6OCO7)ncnc45)CC3)C(=O)[C@@H]3CCCC[C@H]23)cc1OC` [Example 12, N-[(2R)-3-(biphenyl-4-yl)-1-{4-[(4aS,8aR)-4-(3,4-dimethoxyphenyl)-1-oxo-4a,5,6,7,8,8a-hexahydrophthalazin-2(1H)-yl]piperidin-1-yl}-1-oxopropan-2-yl]-4-[5-(cyclopropylmethoxy)-1,3-benzodioxol-4-yl]-6-methyl-5H-pyrrolo[3,2-d]pyrimidine-7-carboxamide]: the IC50 at PDE4B1 and on human PDE5 was 1 to 10 nM in each case.

For `COc1ccc(C2=NN(C3CCN(C(=O)[C@@H](Cc4ccc(-c5ccccc5)cc4)NC(=O)c4c[nH]c5c(-c6c(OCC7CC7)ccc7c6OCO7)ncnc45)CC3)C(=O)[C@@H]3CCCC[C@H]23)cc1OC` [Example 13, N-[(2R)-3-(biphenyl-4-yl)-1-{4-[(4aS,8aR)-4-(3,4-dimethoxyphenyl)-1-oxo-4a,5,6,7,8,8a-hexahydrophthalazin-2(1H)-yl]piperidin-1-yl}-1-oxopropan-2-yl]-4-[5-(cyclopropylmethoxy)-1,3-benzodioxol-4-yl]-5H-pyrrolo[3,2-d]pyrimidine-7-carboxamide], the IC50 at PDE4B1 was under 1 nM; at human PDE5, 1 to 10 nM.
